Test results published in the NIST ThermoML archive (doi:10.1021/je8008254).

Experiments:
[1] = xn = mol fraction of the nth substance listed; conditions: 101 kPa, Liquid
[2] = 101 kPa, Liquid

CO [methanol] + CCCCn1cc[n+](C)c1.N#C[S-]
[1], x2 = 0
Conditions	mass density [kg/m3]	viscosity [mPa·s]
298.15 K	786.64	0.577
308.15 K	777.15	0.525
318.15 K	767.59	0.481
328.15 K	757.83	0.443

CCCCn1cc[n+](C)c1.N#C[S-] [1-butyl-3-methylimidazolium thiocyanate] + CO
[1]
Conditions	mass density, 298.15 K [kg/m3]	mass density, 308.15 K [kg/m3]	mass density, 318.15 K [kg/m3]	mass density, 328.15 K [kg/m3]	viscosity, 298.15 K [mPa·s]	viscosity, 308.15 K [mPa·s]	viscosity, 318.15 K [mPa·s]	viscosity, 328.15 K [mPa·s]
x1 = 0.0154	810	800.87	791.7	782.41	0.665	0.593	0.536	0.49
x1 = 0.0531	854.66	846.16	837.63	829.05	0.871	0.765	0.681	0.613
x1 = 0.0964	892.65	884.64	876.63	868.59	1.18	1.02	0.892	0.792
x1 = 0.1443	924.63	917.04	909.43	901.81	1.62	1.39	1.2	1.06
x1 = 0.2076	954.94	947.69	940.47	933.23	2.34	1.96	1.67	1.45
x1 = 0.3602	1001.45	994.74	988.06	981.43	5.15	4.13	3.33	2.82
x1 = 0.5083	1028.1	1021.68	1015.3	1008.99	9.75	7.55	6.03	4.85
x1 = 0.6227	1041.88	1035.64	1029.43	1023.26	14.5	10.8	8.4	6.68
x1 = 0.7114	1050.29	1044.13	1038.01	1031.94	19.4	14.1	10.7	8.4
x1 = 0.8006	1057.46	1051.39	1045.36	1039.38	25.4	18	13.4	10.32
x1 = 0.9046	1064.23	1058.22	1052.27	1046.37	34.1	23.3	16.9	12.78
x1 = 1	1069.79	1063.89	1058.02	1052.19	51.7	34.9	24.2	16.7

CCCO [propan-1-ol] + CCCCn1cc[n+](C)c1.N#C[S-]
[1], x2 = 0
Conditions	mass density [kg/m3]	viscosity [mPa·s]
298.15 K	799.52	1.94
308.15 K	791.41	1.54
318.15 K	783.15	1.24
328.15 K	774.66	1.02
338.15 K	765.91	0.842
348.15 K	756.84	0.71

CCO [ethanol] + CCCCn1cc[n+](C)c1.N#C[S-]
[1], x2 = 0
Conditions	mass density [kg/m3]	viscosity [mPa·s]
298.15 K	785.17	1.09
308.15 K	776.49	0.912
318.15 K	767.67	0.774
328.15 K	758.65	0.664
338.15 K	749.35	0.589
348.15 K	739.75	0.512

CCCO [propan-1-ol]
[2]
Conditions	mass density [kg/m3]	viscosity [mPa·s]
298.15 K	799.52	1.94
308.15 K	791.41	1.54
318.15 K	783.15	1.24
328.15 K	774.66	1.02
338.15 K	765.91	0.842
348.15 K	756.84	0.71
